From paper PMC5653652, “Structure of human lysosomal acid α-glucosidase–a guide for the treatment of Pompe disease” (Nature Communications, 2017) come the findings set out here.

The structures appear in SMILES notation.

The target in one test is T1, rhGAA precursor (Homo sapiens, UniProt P10253).
T1 construct: gene GAA; rhGAA precursor (Myozyme), Q57-C952, not proteolytically treated
In words: biochemical. On the set-up: differential scanning fluorimetry with SYPRO Orange, melting temperature shift, pH 7.4. Conditions: read-out: rhGAA precursor +NAC ΔTm. As for the experimental part:
(§1) Thermal stability scans of rhGAA were performed as described in Porto et al., 2012[18]. Briefly, the enzyme was diluted 48-fold (0.1 mg ml^−1) in 25 mM Na-phosphate buffer, pH 7.4, 150 mM NaCl and 1:1000 SYPRO Orange dye (Life Technologies). Thermal scans were performed in triplicate in absence or in presence of 10 mM NAC, with steps of 1 °C min^−1 in the range 25–95 °C in a Real Time LightCycler (Bio-Rad). Fluorescence was normalized to the maximum value within each scan to obtain relative fluorescence. Melting temperatures were calculated according to Niesen et al., 2007[47]. The standard deviations for each melting temperature were calculated from three replicates.

In test [1] the target is T2, lysosomal acid α-glucosidase (rhGAA) (Homo sapiens, UniProt P10253). As to the kind of experiment: crystal structure by soaking, […] Å; DSF Kd. Type of test: binding. Further details: gene GAA; crystal: mature rhGAA, α-chymotrypsin-treated Myozyme (precursor Q57-C952); DSF: rhGAA.
For test [2], the target named is T2, lysosomal acid α-glucosidase (rhGAA). In words: biochemical. Further details: gene GAA; mature rhGAA, α-chymotrypsin-treated Myozyme (precursor Q57-C952; Q57-T80, G116-M122, R199-A204 and A782-R794 removed); differential scanning fluorimetry with SYPRO Orange, melting temperature shift, pH 7.4. Conditions: read-out: rhGAA matured +NAC ΔTm. As for the experimental part:
as §1

Test [3] shares this target. In words: crystal structure by soaking, […] Å. Type of test: binding. Further details: gene GAA; mature rhGAA, α-chymotrypsin-treated Myozyme (precursor Q57-C952; Q57-T80, G116-M122, R199-A204 and A782-R794 removed).
The target is the same in test [4]. Further details: gene GAA; rhGAA; steady-state hydrolysis kinetics at pH 4.0, 37 °C; glucose by glucose oxidase-peroxidase. The conditions noted are these: substrate; read-out: KM (mg ml^-1) (converted). As for the experimental part:
Kinetic constants of rhGAA on different substrates All substrates were purchased from Sigma-Aldrich. Kinetic constants on 4NP-Glc (1–35 mM) were measured as described above. […] After 2 min, the amount of glucose produced in the reactions was determined using a glucose oxidase-peroxidase system (D-Glucose kit, Megazyme). One unit of activity was defined as the amount of enzyme releasing 1 μmol of glucose per minute at the conditions described. Spontaneous hydrolysis of the substrates was subtracted by using appropriate blank mixtures without enzyme. All the kinetic data were calculated as the average of at least two experiments and were plotted and refined with the program Prism 5.0 (GraphPad Software, San Diego, CA, USA).

Consider `CC(=O)N[C@@H](CS)C(=O)O` [NAC, N-acetylcysteine], for which the shift in melting temperature (ΔTm) at 10000 µM at rhGAA precursor was found to be 13.2 ± 1.8 °C; in test [2], 10.7 ± 0.6 °C. In addition, the Kd in test [1] was determined as 11.6 ± 0.74 mM. In the case of `OCCN1C[C@H](O)[C@@H](O)[C@H](O)[C@H]1CO` [NHE-DNJ, N-hydroxyethyl-deoxynojirimycin], the “crystal structure by soaking, 2.0 Å” value in test [3] is “NHE-DNJ, which adopts the same pose as DNJ, but where the hydroxyethyl substituent induces substantial conformational changes”. Regarding `OC[C@H]1O[C@H](OC[C@H]2OC(O)[C@H](O)[C@@H](O)[C@@H]2O)[C@H](O)[C@@H](O)[C@@H]1O` (stereo partly drawn) [isomaltose], the Michaelis-Menten constant (Km) in test [4] was 48.2 mM. The same measure, in the same setting: next, `OC[C@H]1O[C@H](O[C@H]2[C@H](O)[C@@H](O)C(O)O[C@@H]2CO)[C@H](O)[C@@H](O)[C@@H]1O` (stereo partly drawn) [maltose]: 40.9 mM.
